Patent US20240240226A1, “FLUOROGENIC ASSAY FOR RAPID SCREENING OF BACTERIAL BETA-LACTAMASE ACTIVITY” (The Board of Trustees of the Leland Stanford Junior …, priority 2021, published 2024)

Experiment: Stability test in H2O2 in PBS
Format: physicochemical
Conditions: room temperature
Procedure: FIG. 2 illustrates the characterization of CDA with recombinant TEM-1 Bla, esterase, HRP, and H2O2. a) Stability test of CDA in different concentrations of H2O2 in PBS. The signal of PBS was subtracted and the absolute values were plotted. b) Fluorescence enhancement of CDA treated with esterase […], TEM-1 Bla (100 nM) and H2O2 (100 μM or 1 mM). c) Activation of CDA by esterase (1 μg/mL) and TEM-1 Bla (100 nM) with or without oxygen in the reaction. Glass flasks with working solution were continuously vacuumed to maintain a deoxidized environment. Samples were transferred and scanned immediate at each time point in a black 96 well plate. Error bars represent ±SD, n=3. d) Fluorescence enhancement of CDA treated with esterase (1 μg/mL), TEM-1 Bla (100 nM), HRP (1 unit/ml), and H2O2 (1 μM). e) Fluorescence enhancement of different concentrations of CDA treated with esterase (1 μg/mL), TEM-1 Bla (100 nM) and H2O2 (1 mM). f) Fluorescence enhancement of CDA treated with indicated amounts of β-lactamases, esterase (1 μg/mL) and H2O2 (1 mM) after incubation at room temperature for 2 h. […] Data were collected on a Tecan Safire microplate reader with excitation at 570 nm and emission at 600 nm. […]
As oxidation is the essential step in converting β-lactamase/esterase processed CDA to resorufin, the stability of CDA was evaluated in different concentrations of H2O2 (FIG. 2a). […]

With `CC(=O)Oc1ccc2c(c1)Oc1cc(OC(C)=O)ccc1N2C(=O)OCc1ccc(SCC2=C(C(=O)O)N3C(=O)[C@@H](NC(=O)Cc4ccccc4)[C@H]3SC2)cc1` [CDA, 3-(((4-(((3,7-diacetoxy-10H-phenoxazine-10-carbonyl)oxy)methyl)phenyl)thio)methyl)-8-oxo-7-(2-phenylacetamido)-5-thia-1-azabicyclo[4.2.0]oct-2-ene-2-carboxylic acid] as the molecule, how does the “stability of the sulfur center in H2O2 (LC-MS)” value (H2O2 1 mM, 2 hours) read?
The value was “stable”.

What about the “spontaneous hydrolysis in H2O2” value (up to 1 mM H2O2 in PBS, within 2 hours) of the same molecule?
Its value is “Almost no spontaneous hydrolysis”.
